Here are results for 77 compounds from publication PMC8869358, “High-Throughput Chemical Screening and Structure-Based Models to Predict hERG Inhibition” (Biology, 2022).

Structures can show the parent of a compound that is named as a salt.

Chain of hERG (Q12809 whole entry): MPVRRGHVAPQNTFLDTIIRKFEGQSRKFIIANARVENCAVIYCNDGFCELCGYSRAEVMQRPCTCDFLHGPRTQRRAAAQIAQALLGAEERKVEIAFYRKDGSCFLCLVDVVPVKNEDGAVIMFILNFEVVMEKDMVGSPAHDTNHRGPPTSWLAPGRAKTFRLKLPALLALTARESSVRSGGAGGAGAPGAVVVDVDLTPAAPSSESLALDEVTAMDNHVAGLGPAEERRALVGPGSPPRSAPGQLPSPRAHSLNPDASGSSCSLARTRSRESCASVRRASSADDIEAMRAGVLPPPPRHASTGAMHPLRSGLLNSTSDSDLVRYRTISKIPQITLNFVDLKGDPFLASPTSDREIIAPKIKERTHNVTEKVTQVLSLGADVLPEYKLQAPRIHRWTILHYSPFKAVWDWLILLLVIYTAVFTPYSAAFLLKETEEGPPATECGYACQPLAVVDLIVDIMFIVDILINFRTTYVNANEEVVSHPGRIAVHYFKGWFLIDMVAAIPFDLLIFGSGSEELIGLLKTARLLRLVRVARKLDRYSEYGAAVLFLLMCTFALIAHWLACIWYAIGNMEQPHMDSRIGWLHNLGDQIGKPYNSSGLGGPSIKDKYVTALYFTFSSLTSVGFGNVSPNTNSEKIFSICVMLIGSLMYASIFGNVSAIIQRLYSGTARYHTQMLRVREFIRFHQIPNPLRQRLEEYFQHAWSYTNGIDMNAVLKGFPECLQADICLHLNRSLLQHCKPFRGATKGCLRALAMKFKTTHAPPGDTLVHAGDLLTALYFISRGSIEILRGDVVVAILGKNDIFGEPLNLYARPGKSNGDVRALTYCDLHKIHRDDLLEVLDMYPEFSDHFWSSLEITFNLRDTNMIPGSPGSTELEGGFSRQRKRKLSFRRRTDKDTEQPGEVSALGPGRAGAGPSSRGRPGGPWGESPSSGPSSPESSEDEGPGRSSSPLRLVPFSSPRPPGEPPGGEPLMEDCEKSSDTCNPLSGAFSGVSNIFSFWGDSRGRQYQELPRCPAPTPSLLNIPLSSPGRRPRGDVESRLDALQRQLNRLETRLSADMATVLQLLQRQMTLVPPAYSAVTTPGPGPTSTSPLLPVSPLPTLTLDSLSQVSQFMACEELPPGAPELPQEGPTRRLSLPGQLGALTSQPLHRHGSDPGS

This experiment addresses hERG (Homo sapiens, UniProt Q12809). The experiment is described as follows: cell-based. The conditions noted are these: (-LOG10(IC50), µM).
The term IC50 denotes the point on the concentration scale where inhibition reaches its midpoint. Consider `CC[N+](CC)(CC)CCOc1ccc(/C=C/c2ccccc2)cc1` [Stilonium iodide], for which the IC50 is 8.82 µM.

With `C=C(Cl)CSC(=S)N(CC)CC` [Sulfallate], the half-inhibitory concentration (IC50) was 51.5 µM.

As to `CCCCCCCCN[C@H](C)[C@@H](O)c1ccc(SC(C)C)cc1` [Suloctidil], the IC50 was 0.29 µM.

`CCN1CCCC1CNC(=O)c1cc(S(N)(=O)=O)ccc1OC` (centres unmarked) [Sulpiride] showed an IC50 of 34.7 µM.

The compound `CCc1c(C(=O)NN2CCCCC2)nn(-c2ccc(Cl)cc2Cl)c1-c1ccc(Br)cc1` [Surinabant] showed an IC50 of 6.92 µM.

In turn, `CCOc1ccccc1OCCN[C@H](C)Cc1ccc(OC)c(S(N)(=O)=O)c1` [Tamsulosin hydrochloride] had an IC50 of 19.7 µM.

For `CC(C)(C)C(O)(CCc1ccc(Cl)cc1)Cn1cncn1` (centres unmarked) [Tebuconazole], the IC50 was 21.9 µM.

Regarding `CCc1nn(C)c(C(=O)NCc2ccc(C(C)(C)C)cc2)c1Cl` [Tebufenpyrad], the IC50 was 24.5 µM.

In turn, `CCOP(=S)(Oc1cnc(C(C)(C)C)nc1)OC(C)C` (centres unmarked) [Tebupirimfos] showed an IC50 of 43.6 µM.

`CCCCCNC(=N)N/N=C/c1c[nH]c2ccc(OC)cc12` [Tegaserod]: the IC50 was 9.16 µM.

As to `CN(C/C=C/C#CC(C)(C)C)Cc1cccc2ccccc12` [Terbinafine], the IC50 was 9.52 µM.

The compound `CCN(CC)CCOc1ccc(Cc2ccccc2)cc1` [Tesmilifene] had an IC50 of 8.82 µM.

Compound `CCC(=O)O[C@H]1CC[C@H]2[C@@H]3CCC4=CC(=O)CC[C@]4(C)[C@H]3CC[C@]12C` [Testosterone propionate] showed an IC50 of 25.8 µM.

Compound `CCCC[P+](CCCC)(CCCC)CCCC` [Tetrabutylphosphonium bromide] gave an IC50 of 16 µM.

Compound `CCCC[P+](CCCC)(CCCC)CCCC` [Tetrabutylphosphonium chloride] showed an IC50 of 23.2 µM.

As for `CCCCCCCCCCCCCC[n+]1ccccc1` [Tetradecylpyridinium bromide], the IC50 was 5.49 µM.

Compound `CCCCCCCCCCCCCC[N+](C)(C)C` [Tetradonium bromide] gave an IC50 of 18.3 µM.

Regarding `CCCCC(CC)C(=O)OCCOCCOCCOCCOC(=O)C(CC)CCCC` (centres unmarked) [Tetraethylene glycol di(2-ethylhexanoate)], the IC50 was 11 µM.

In turn, `CC(C)=CC1C(C(=O)OCN2C(=O)C3=C(CCCC3)C2=O)C1(C)C` (centres unmarked) [Tetramethrin] gave an IC50 of 40.4 µM.

`CN1CCC(N(Cc2cccs2)c2ccccc2)CC1` [Thenalidine] showed an IC50 of 4.96 µM.

As for `CS/C(C)=N/OC(=O)N(C)SN(C)C(=O)O/N=C(\C)SC` [Thiodicarb], half-maximal inhibition (IC50) was put at 43.6 µM.

For the compound `CN1CCN(CCCN2c3ccccc3Sc3ccc(S(=O)(=O)N(C)C)cc32)CC1` [Thioproperazine dimethanesulfonate], inhibition was half-maximal at 4.96 µM (IC50).

Compound `CCN(CC)CCSC(=O)C(c1ccccc1)c1ccccc1` [Thiphenamil] had an IC50 of 3.01 µM.

In turn, `CCCCCCCCCCCCCCCC[N+](C)(C)CCN(Cc1ccc(OC)cc1)c1ncccn1` [Thonzonium bromide] showed an IC50 of 0.409 µM.

The compound `COC1CC(=C(c2cccs2)c2cccs2)C[N+](C)(C)C1` (centres unmarked) [Timepidium bromide] showed an IC50 of 19.7 µM.

As to `CCOC(=O)c1c(N)sc2c1CCN(Cc1ccccc1)C2` [Tinoridine], the IC50 is 21.3 µM.

`CC(C)C(=O)OCc1cccc(OC(=O)[C@@H]2N3C(=O)[C@@H](NC(=O)Cc4ccccc4)[C@H]3SC2(C)C)c1` [Tobicillin] had a half-inhibitory concentration (IC50) of 20.5 µM.

`Cc1ccc(N(SC(F)(Cl)Cl)S(=O)(=O)N(C)C)cc1` [Tolylfluanid] had an IC50 of 19.5 µM.

Compound `CC(=O)c1cc2c(cc1C)C(C)(C)C(C)CC2(C)C` (centres unmarked) [Tonalide] had an IC50 of 20.3 µM.

As to `N#Cc1c(-c2ccc(Cl)cc2)[nH]c(C(F)(F)F)c1Br` [Tralopyril], the IC50 was 11 µM.

`COc1cc2c(cc1OC)-c1c/c(=N\c3c(C)cc(C)cc3C)n(C)c(=O)n1CC2` [Trequinsin hydrochloride] had an IC50 of 14 µM.

The compound `CC(C)N(C(=O)SCC(Cl)=C(Cl)Cl)C(C)C` [Tri-allate] had an IC50 of 20 µM.

Consider `Cc1ccccc1OP(=O)(Oc1ccccc1C)Oc1ccccc1C` [Tri-o-cresyl phosphate], for which the midpoint of inhibition, the IC50, lay at 21.1 µM.

Consider `CCCC[P+](C)(CCCC)CCCC` [Tributylmethylphosphonium methyl sulfate], for which the IC50 is 35.1 µM.

Regarding `CCCCOCCOC(=O)COc1nc(Cl)c(Cl)cc1Cl` [Triclopyr butotyl], the IC50 is 34.7 µM.

In turn, `Oc1cc(Cl)ccc1Oc1ccc(Cl)cc1Cl` [Triclosan] showed an IC50 of 45.2 µM.

`C=CC(=O)OCC1CC2CC1C1CCC(COC(=O)C=C)C21` (centres unmarked) [Tricyclodecanedimethanol diacrylate] showed an IC50 of 36 µM.

`CCCCCCCCCCCCCN1CC(C)OC(C)C1` (centres unmarked) [Tridemorph] gave a 50% inhibitory concentration (IC50) of 16.4 µM.

`CCCOC/C(=N\c1ccc(Cl)cc1C(F)(F)F)n1ccnc1` [Triflumizole] gave a 50% inhibitory concentration (IC50) of 36 µM.

For the compound `CCCCCCCCCCCCCC[P+](CCCCCC)(CCCCCC)CCCCCC` [Trihexyltetradecylphosphonium bromide], half-maximal inhibition (IC50) was put at 0.44 µM.

In turn, `CCCCCCCCCCCCCC[P+](CCCCCC)(CCCCCC)CCCCCC` [Trihexyltetradecylphosphonium chloride] had an IC50 of 0.875 µM.

The compound `CCCCCCCCCCCCCC[P+](CCCCCC)(CCCCCC)CCCCCC.N#C[N-]C#N` [Trihexyltetradecylphosphonium dicyanamide] had an IC50 of 0.55 µM.

In turn, `CCCCCCCCCCCCCC[P+](CCCCCC)(CCCCCC)CCCCCC` [Trihexyltetradecylphosphonium hexafluorophosphate] had an IC50 of 0.47 µM.

`CCC(COC(=O)c1cc(OC)c(OC)c(OC)c1)(c1ccccc1)N(C)C` (centres unmarked) [Trimebutine maleate]: the IC50 is 16.9 µM.

For the compound `CC(CN(C)C)CN1c2ccccc2CCc2ccccc21` (centres unmarked) [Trimipramine hydrogen maleate], the IC50 is 14.5 µM.

With `CCN(CC)CCOc1ccc(C(O)(Cc2ccc(Cl)cc2)c2ccc(C)cc2)cc1` (centres unmarked) [Triparanol], it took 1.11 µM to reach half-maximal inhibition (IC50).

The compound `CN(C)CCN(Cc1ccccc1)c1ccccn1` [Tripelennamine citrate] showed an IC50 of 12.7 µM.

Turning to `C(=C(c1ccccc1)c1ccccc1)c1ccccc1` [Triphenylethylene], the IC50 was 18.1 µM.

In the case of `O[Si](c1ccccc1)(c1ccccc1)c1ccccc1` [Triphenylsilanol], the midpoint of inhibition, the IC50, lay at 21.9 µM.

With `O=P(OCC(Br)CBr)(OCC(Br)CBr)OCC(Br)CBr` (centres unmarked) [Tris(2,3-dibromopropyl) phosphate], the IC50 is 16.9 µM.

Compound `CN1[C@@H]2CC[C@H]1C[C@@H](OC(=O)c1c[nH]c3ccccc13)C2` [Tropisetron] had an IC50 of 12.9 µM.

`CCCOc1ccc(S(=O)(=O)N2CCN(CC)CC2)cc1-c1nc2c(CC)n(Cc3ccccn3)nc2c(=O)[nH]1` [UK-343664] showed an IC50 of 21.9 µM.

With `CN[C@H]1CC[C@@H](c2ccc(Cl)c(Cl)c2)c2ccc(S(N)(=O)=O)cc21` [UK-373911], inhibition was half-maximal at 6.92 µM (IC50).

The compound `CSc1ccc(Oc2ccc(S(N)(=O)=O)cc2CN(C)C)cc1C` [UK-416244] gave an IC50 of 8.71 µM.

For `CC[C@]12CCCN3CCc4c(n(c5ccccc45)[C@@](O)(C(=O)OC)C1)[C@@H]32` [Vincamine], the IC50 was 1.33 µM.

In turn, `CCC1=C[C@@H]2CN(C1)Cc1c([nH]c3ccccc13)[C@@](C(=O)OC)(c1cc3c(cc1OC)N(C)[C@H]1[C@@](O)(C(=O)OC)[C@H](OC(C)=O)[C@]4(CC)C=CCN5CC[C@]31[C@@H]54)C2` [Vinorelbine tartrate] had an IC50 of 6.49 µM.

On to `CCOC(=O)C1=C[C@]2(CC)CCCN3CCc4c(n1c1ccccc41)[C@@H]32` [Vinpocetine], for which the IC50 is 0.169 µM.

For `FC(F)(F)c1cccc(C2=CCN(CCc3ccc4ccccc4c3)CC2)c1` [Xaliproden hydrochloride], the IC50 was 1.76 µM.

On to `COC(=O)[C@@H]1[C@H]2C[C@H]3c4[nH]c5ccccc5c4CCN3C[C@@H]2CC[C@@H]1O` [Yohimbine], for which half-maximal inhibition (IC50) was put at 23.9 µM.

As to `CC1(CN2CCC(n3c(=O)[nH]c4ccccc43)CC2)OCc2ccccc2-n2cccc21` (centres unmarked) [Zaldaride], the IC50 is 8.82 µM.

Take `c1ccc(C(O[C@H]2CCCN(CCc3ccc4c(c3)OCO4)C2)c2ccccc2)cc1` [Zamifenacin fumarate]: the IC50 was 0.535 µM.

For the compound `c1ccc(C(O[C@@H]2CCCN(CCc3ccc4c(c3)OCO4)C2)c2ccccc2)cc1` [Zamifenacin], the IC50 was 0.838 µM.

For the compound `O=C(CCC1CCN(Cc2ccccc2)CC1)c1ccc2c(c1)NCCCC2` [Zanapezil fumerate], the midpoint of inhibition, the IC50, lay at 4.59 µM.

In the case of `COc1ccc(CCN(C)CCCN2CCc3cc(OC)c(OC)cc3CC2=O)cc1OC` [Zatebradine hydrochloride], the IC50 was 10.1 µM.

The compound `C[C@H]1CCC[C@H](O)CCCCCc2cc(O)cc(O)c2C(=O)O1` [Zearalanol] gave an IC50 of 55.4 µM.

Turning to `c1cc(CN2CCCCC2)cc(OCCCNc2nc3ccccc3s2)c1` [Zolantidine dimaleate], the IC50 was 9.16 µM.

`CCC(C)(NC(=O)c1cc(Cl)c(C)c(Cl)c1)C(=O)CCl` (centres unmarked) [Zoxamide] had an IC50 of 39.1 µM.

The compound `Cl[C@H]1[C@H](Cl)[C@@H](Cl)[C@H](Cl)[C@H](Cl)[C@H]1Cl` [alpha-1,2,3,4,5,6-Hexachlorocyclohexane] showed an IC50 of 49.4 µM.

In the case of `OCCN1CCN(CC/C=C2/c3ccccc3Sc3ccc(C(F)(F)F)cc32)CC1` [cis-Flupentixol], half-maximal inhibition (IC50) required 1.69 µM.

In turn, `Cl[C@H]1[C@H](Cl)[C@@H](Cl)[C@H](Cl)[C@@H](Cl)[C@H]1Cl` [delta-Hexachlorocyclohexane] showed an IC50 of 51.9 µM.

Turning to `ClC(Cl)=C(c1ccc(Cl)cc1)c1ccccc1Cl` [o,p'-DDE], the IC50 was 21 µM.

`Clc1ccc(C(c2ccccc2Cl)C(Cl)(Cl)Cl)cc1` (centres unmarked) [o,p'-DDT] had an IC50 of 21.5 µM.

In turn, `Clc1ccc(C(c2ccc(Cl)cc2)C(Cl)Cl)cc1` [p,p'-DDD] had an IC50 of 25.5 µM.

`ClC(Cl)=C(c1ccc(Cl)cc1)c1ccc(Cl)cc1` [p,p'-DDE]: the IC50 was 27.5 µM.

Take `CCc1ccc(C(c2ccc(CC)cc2)C(Cl)Cl)cc1` [p,p'-Ethyl-DDD]: the IC50 was 17.7 µM.

In turn, `CCOP(=S)(OCC)Oc1ccc([N+](=O)[O-])cc1` [parathion] gave an IC50 of 45.9 µM.

The compound `O=P(Oc1ccccc1)(Oc1ccccc1)Oc1ccccc1` [triphenyl phosphate] showed an IC50 of 32.1 µM.
